Measurements reported in patent US12486251B2 (PHARMABLOCK SCIENCES (NANJING) , INC., priority 2020, dated 2025).

Target: CBP recombinant proteins (Homo sapiens (Human), UniProt Q92793)
Assay: Competitive HTRF assay for affinity to CBP recombinant protein
Assay type: binding
Conditions: His-tagged CBP 5 nM, biotin-labeled ligand 50 nM, 1% DMSO
Protocol: The affinity of the compounds synthesized in the present patert to the CBP recombinant proteins was determined by competitive HTRF method. His-tagged cyclic adenosine monophosphate response element binding protein (CREB-binding protein, CBP) was expressed in Escherichia coli system and further purified. CBP biotinylated ligands were all self-made. The BL21 star (DE3) competert cells transfected with His-tagged CBP protein genes at N-terminal were cultured at 37° C. for 16 h until the OD value was between 0.6 and 0.8, induced by 0.5 mM of IPTG and cultured overnight. The supernatant of cell lysate was purified by a Ni-ion affinity column and a Superdex75 molecular sieve column sequentially. The purity of resulting CBP proteins was 95%. The fluorescent donor reagent MAb Anti 6HIS—Eu cryptate Gold (Cisbio #61HI2KLA), the receptor reagent Streptavidin-XL665 (#610SAXLA) and the detection buffer (#62SDBRDD) required for HTRF were obtained from CISBIO BIOASSAYS (Codolet, France). Tris(2-carboxyethyl)phosphine hydrochloride (TCEP), sodium chloride, adenosine triphosphate (ATP), Tween-20, dimethylsulfoxide (DMSO), bovine serum albumin (BSA) and HEPES buffer were obtained from SIGMA at the highest level commercially available.
The general procedure of the competitive HTRF assay for the affinity to CBP recombinant proteins is as follows: 0.05% Tween-20 and 1 mM of TCEP were added immediately before the assay, and the assay was performed in a buffer consisting of 0.1 mg/ml BSA, 50 mM of HEPES and 5 mM of NaCl of pH 7.5. 2.5 μL of compound solution in a determination buffer with 4% DMSO and 5 μL of CBP solution in a determination buffer were added to a white low-volume 384-well microtiter plate, incubated at room temperature for 20 min, and then incubated at room temperature for 40 min by adding 2.5 μL of biotin-labeled ligand solution to the determination buffer. The final concentrations of CBP, biotin-labeled ligand and DMSO were 5 nM, 50 nM and 1%, respectively. Then, 5 μL of MAb Anti 6HIS—Eu cryptate Gold and […] of Streptavidin-XL665 in detection buffers from the manufacturer were added to the mixture, and the mixture was incubated for another 60 min. The final concentration of Streptavidin-XL665 was 12.5 nM, and MAb Anti 6HIS—Eu cryptate Gold was diluted according to the final concentration provided by the supplier. The multimode reader Spark from TECAN (Mannedorf, Switzerland) was used to read the plate to detect the homogeneous time-resolved fluorescence intensity of two groups, in which the excitation wavelength was 320 nm and the emission wavelengths were 665 nm and 620 nm. The IC50 value of the inhibitor was obtained by fitting fluorescence intensity ratios at 665 nm/620 nm with respect to the inhibitor concentration in an S-shaped dose-response curve by using Prism 7 (La Jolla, 15 CA).

CBP recombinant proteins, sequence (Q92793 whole entry): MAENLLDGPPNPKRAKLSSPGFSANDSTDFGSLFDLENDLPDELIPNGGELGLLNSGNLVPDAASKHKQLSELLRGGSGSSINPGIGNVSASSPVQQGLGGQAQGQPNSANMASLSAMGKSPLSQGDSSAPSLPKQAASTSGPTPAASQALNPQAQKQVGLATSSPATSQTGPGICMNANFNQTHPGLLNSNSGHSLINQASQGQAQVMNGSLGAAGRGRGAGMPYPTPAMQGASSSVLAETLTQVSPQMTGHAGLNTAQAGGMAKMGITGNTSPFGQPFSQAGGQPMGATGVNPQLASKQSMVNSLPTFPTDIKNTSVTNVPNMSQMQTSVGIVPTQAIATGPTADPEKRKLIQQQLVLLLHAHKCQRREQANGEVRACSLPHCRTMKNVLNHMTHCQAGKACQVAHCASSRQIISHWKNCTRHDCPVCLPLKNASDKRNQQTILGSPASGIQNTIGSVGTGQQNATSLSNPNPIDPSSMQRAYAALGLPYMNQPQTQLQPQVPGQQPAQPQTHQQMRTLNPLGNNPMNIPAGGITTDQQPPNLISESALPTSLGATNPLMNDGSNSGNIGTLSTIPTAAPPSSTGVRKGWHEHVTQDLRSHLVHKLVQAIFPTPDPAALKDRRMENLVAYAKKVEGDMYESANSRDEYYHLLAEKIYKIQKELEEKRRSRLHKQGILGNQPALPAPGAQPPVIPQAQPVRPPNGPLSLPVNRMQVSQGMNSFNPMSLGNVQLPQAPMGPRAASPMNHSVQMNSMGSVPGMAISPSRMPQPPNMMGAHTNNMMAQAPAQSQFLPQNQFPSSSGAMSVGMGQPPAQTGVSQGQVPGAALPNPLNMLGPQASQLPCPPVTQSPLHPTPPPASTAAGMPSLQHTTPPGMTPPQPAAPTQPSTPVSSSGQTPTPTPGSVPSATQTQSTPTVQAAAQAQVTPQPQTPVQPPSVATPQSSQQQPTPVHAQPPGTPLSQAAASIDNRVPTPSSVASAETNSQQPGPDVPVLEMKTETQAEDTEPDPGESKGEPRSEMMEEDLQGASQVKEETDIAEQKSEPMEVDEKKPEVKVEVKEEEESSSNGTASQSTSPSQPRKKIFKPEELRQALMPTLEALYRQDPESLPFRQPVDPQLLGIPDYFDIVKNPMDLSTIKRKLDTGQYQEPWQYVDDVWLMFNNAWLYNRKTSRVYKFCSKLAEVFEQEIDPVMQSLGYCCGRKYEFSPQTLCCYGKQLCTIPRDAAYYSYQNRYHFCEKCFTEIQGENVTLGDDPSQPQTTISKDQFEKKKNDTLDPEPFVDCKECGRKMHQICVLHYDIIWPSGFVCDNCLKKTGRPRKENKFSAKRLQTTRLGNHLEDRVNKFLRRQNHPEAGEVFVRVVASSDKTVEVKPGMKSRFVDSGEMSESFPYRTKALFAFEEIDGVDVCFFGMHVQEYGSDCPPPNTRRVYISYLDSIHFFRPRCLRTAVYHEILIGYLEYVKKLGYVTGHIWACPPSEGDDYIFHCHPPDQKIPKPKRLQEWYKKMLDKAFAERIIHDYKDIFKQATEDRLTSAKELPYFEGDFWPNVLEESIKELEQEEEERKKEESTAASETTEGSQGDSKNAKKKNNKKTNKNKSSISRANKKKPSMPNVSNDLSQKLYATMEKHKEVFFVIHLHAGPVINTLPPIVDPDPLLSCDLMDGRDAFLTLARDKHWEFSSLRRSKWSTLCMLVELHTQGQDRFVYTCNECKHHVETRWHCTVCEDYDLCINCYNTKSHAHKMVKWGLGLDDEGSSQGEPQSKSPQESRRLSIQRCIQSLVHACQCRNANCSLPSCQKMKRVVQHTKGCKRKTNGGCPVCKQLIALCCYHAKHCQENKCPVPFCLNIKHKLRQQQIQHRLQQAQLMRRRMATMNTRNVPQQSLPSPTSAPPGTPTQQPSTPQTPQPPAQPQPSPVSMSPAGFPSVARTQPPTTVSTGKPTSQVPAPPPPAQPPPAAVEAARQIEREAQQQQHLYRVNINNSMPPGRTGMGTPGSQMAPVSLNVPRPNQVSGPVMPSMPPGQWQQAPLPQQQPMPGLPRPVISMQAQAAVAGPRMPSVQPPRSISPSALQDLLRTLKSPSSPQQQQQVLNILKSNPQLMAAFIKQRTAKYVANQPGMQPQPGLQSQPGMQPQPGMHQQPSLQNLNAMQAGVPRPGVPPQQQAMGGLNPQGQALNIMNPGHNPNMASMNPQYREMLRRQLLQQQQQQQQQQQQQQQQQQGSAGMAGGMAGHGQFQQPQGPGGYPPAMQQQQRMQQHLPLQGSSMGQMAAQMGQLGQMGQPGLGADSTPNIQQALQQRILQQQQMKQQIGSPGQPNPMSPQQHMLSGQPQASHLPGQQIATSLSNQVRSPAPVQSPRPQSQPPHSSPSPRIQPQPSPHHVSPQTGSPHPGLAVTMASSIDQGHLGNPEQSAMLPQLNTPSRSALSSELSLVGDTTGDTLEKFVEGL

| SMILES | IC50 |
| --- | --- |
| CNC(=O)c1cc2ccccc2c(N2CCCc3cc(-c4cnn(C)c4)ccc32)n1 [Example 1, 1-[6-(1-methyl-1H-pyrazol-4-yl)-3,4-dihydro-2H-quinolin-1-yl]-isoquinoline-3-carboxylic acid methylamide] | 72 nM |
| CNC(=O)c1cc2ccccc2c(N2CCCc3cc(-c4cnn(C)c4)c(C(F)F)cc32)n1 [Example 2, 1-[7-difluoromethyl-6-(1-methyl-1H-pyrazol-4-yl)-3,4-dihydro-2H-quinolin-1-yl]isoquinoline-3-carboxylic acid methylamide] | 19 nM |
| Cn1cc(-c2cc3c(cc2C(F)F)N(c2nc(C(N)=O)cc4ccccc24)CCC3)cn1 [Example 3, 1-[7-difluoro-methyl-6-(1-methyl-1H-pyrazol-4-yl)-3,4-dihydro-2H-quinolin-1-yl]-isoquinoline-3-carboxylic acid amide] | 245 nM |
| CN(C)C(=O)c1cc2ccccc2c(N2CCCc3cc(-c4cnn(C)c4)c(C(F)F)cc32)n1 [Example 4, 1-[7-difluoro-methyl-6-(1-methyl-1H-pyrazol-4-yl)-3,4-dihydro-2H-quinolin-1-yl]-isoquinoline-3-carboxylic acid dimethylamide] | > 1000 nM |
| CCNC(=O)c1cc2ccccc2c(N2CCCc3cc(-c4cnn(C)c4)c(C(F)F)cc32)n1 [Example 5, 1-[7-difluoro-methyl-6-(1-methyl-1H-pyrazol-4-yl)-3,4-dihydro-2H-quinolin-1-yl]-isoquinoline-3-carboxylic acid ethylamide] | > 1000 nM |
| Cn1cc(-c2cc3c(cc2C(F)F)N(c2nc(C(=O)NCCO)cc4ccccc24)CCC3)cn1 [Example 6, 1-[7-difluoro-methyl-6-(1-methyl-1H-pyrazol-4-yl)-3,4-dihydro-2H-quinolin-1-yl]-isoquinoline-3-carboxylic acid(2-hydroxy-ethyl)-amide] | > 1000 nM |
| CC(O)CNC(=O)c1cc2ccccc2c(N2CCCc3cc(-c4cnn(C)c4)c(C(F)F)cc32)n1 (stereo not drawn) [Example 7, 1-[7-difluoro-methyl-6-(1-methyl-1H-pyrazol-4-yl)-3,4-dihydro-2H-quinolin-1-yl]-isoquinoline-3-carboxylic acid(2-hydroxy-propyl)-amide] | > 1000 nM |
| Cn1cc(-c2cc3c(cc2C(F)F)N(c2nc(C(=O)N4CC(O)C4)cc4ccccc24)CCC3)cn1 [Example 8, {1-[7-difluoro-methyl-6-(1-methyl-1H-pyrazol-4-yl)-3,4-dihydro-2H-quinolin-1-yl]-isoquinolin-3-yl}-(3-hydroxy-azetidine-1-yl)methanone] | > 1000 nM |
| Cn1cc(-c2cc3c(cc2C(F)F)N(c2nc(C(=O)NC4CC4)cc4ccccc24)CCC3)cn1 [Example 9, 1-[7-difluoro-methyl-6-(1-methyl-1H-pyrazol-4-yl)-3,4-dihydro-2H-quinolin-1-yl]-isoquinoline-3-carboxylic acid cyclopro-pylamide] | > 1000 nM |
| CNC(=O)c1cccc(N2CCCc3cc(-c4cnn(C)c4)c(C(F)F)cc32)n1 [Example 11] | > 1000 nM |
| CNC(=O)c1nc(N2CCCc3cc(-c4cnn(C)c4)c(C(F)F)cc32)c2ccccc2n1 [Example 12, 4-[7-difluoro-methyl-6-(1-methyl-1H-pyrazol-4-yl)-3,4-dihydro-2H-quinolin-1-yl]-quinazolin-2-carboxylic acid methylamide] | > 1000 nM |
| CNC(=O)c1cc2cnccc2c(N2CCCc3cc(-c4cnn(C)c4)c(C(F)F)cc32)n1 [Example 13, 2-[7-difluoro-methyl-6-(1-methyl-1H-pyrazol-4-yl)-3,4-dihydro-2H-quinolin-1-yl]-[2,6] naphthyridine-3-carboxylic acid methylamide] | 21 nM |
| CNC(=O)c1cc2ccc(C3=CCOC3)cc2c(N2CCCc3cc(-c4cnn(C)c4)c(C(F)F)cc32)n1 [Example 18, 1-[7-difluoromethyl-6-(1-methyl-1H-pyrazol-4-yl)-3,4-dihydro-2H-quinolin-1-yl]-7-(2,5-dihydro-furan-3-yl)-isoquinoline-3-carboxylic acid methylamide] | 19 nM |
| CNC(=O)c1cc2cc(C3CCOCC3)ccc2c(N2CCCc3cc(-c4cnn(C)c4)c(C(F)F)cc32)n1 [Example 21, 1-[7-difluoromethyl-6-(1-methyl-1H-pyrazol-4-yl)-3,4-dihydro-2H-quinolin-1-yl]-6-(tetrahydro-pyran-4-yl)-isoquinoline-3-carboxylic acid methylamide] | 38 nM |
| CNC(=O)c1cc2cc(C3=CCOC3)ccc2c(N2CCCc3cc(-c4cnn(C)c4)c(C(F)F)cc32)n1 [Example 22, 1-[7-difluoromethyl-6-(1-methyl-1H-pyrazol-4-yl)-3,4-dihydro-2H-quinolin-1-yl]-6-(2,5-dihydro-furan-3-yl)-isoquinoline-3-carboxylic acid methylamide] | 22 nM |
| CNC(=O)c1cc2cc(C3CCOC3)ccc2c(N2CCCc3cc(-c4cnn(C)c4)c(C(F)F)cc32)n1 (stereo not drawn) [Example 23, 1-[7-difluoromethyl-6-(1-methyl-1H-pyrazol-4-yl)-3,4-dihydro-2H-quinolin-1-yl]-6-(tetrahydrofuran-3-yl)-isoquinoline-3-carboxylic acid methylamide] | 18 nM |

The remaining lines, values ahead:

| IC50 | SMILES |
| --- | --- |
| 15 nM | CNC(=O)c1cc2ccncc2c(N2CCCc3cc(-c4cnn(C)c4)c(C(F)F)cc32)n1 [Example 14, 1-[7-difluoro-methyl-6-(1-methyl-1H-pyrazol-4-yl)-3,4-dihydro-2H-quinolin-1-yl]-[2,7] naphthyridine-3-carboxylic acid methylamide] |
| 7.5 nM | CNC(=O)c1cc2cccnc2c(N2CCCc3cc(-c4cnn(C)c4)c(C(F)F)cc32)n1 [Example 15, 8-[7-difluoro-methyl-6-(1-methyl-1H-pyrazol-4-yl)-3,4-dihydro-2H-quinolin-1-yl]-[1,7] naphthyridine-6-carboxylic acid methylamide] |
| 13 nM | CNC(=O)c1cc2ccc(C3=CCOCC3)cc2c(N2CCCc3cc(-c4cnn(C)c4)c(C(F)F)cc32)n1 [Example 16, 1-[7-difluoromethyl-6-(1-methyl-1H-pyrazol-4-yl)-3,4-dihydro-2H-quinolin-1-yl]-7-(3,6-dihydro-2H-pyran-4-yl)-isoquinoline-3-carboxylic acid methylamide] |
| 12 nM | CNC(=O)c1cc2ccc(C3CCOCC3)cc2c(N2CCCc3cc(-c4cnn(C)c4)c(C(F)F)cc32)n1 [Example 17, 1-[7-difluoromethyl-6-(1-methyl-1H-pyrazol-4-yl)-3,4-dihydro-2H-quinolin-1-yl]-7-(tetrahydro-4-yl)-isoquinoline-3-carboxylic acid methylamide] |
| 6.9 nM | CNC(=O)c1cc2ccc(C3CCOC3)cc2c(N2CCCc3cc(-c4cnn(C)c4)c(C(F)F)cc32)n1 (stereo not drawn) [Example 19, 1-[7-difluoromethyl-6-(1-methyl-1H-pyrazol-4-yl)-3,4-dihydro-2H-quinolin-1-yl]-7-(tetrahydrofuran-3-yl)-isoquinoline-3-carboxylic acid methylamide] |
| 18 nM | CNC(=O)c1cc2cc(C3=CCOCC3)ccc2c(N2CCCc3cc(-c4cnn(C)c4)c(C(F)F)cc32)n1 [Example 20, 1-[7-difluoromethyl-6-(1-methyl-1H-pyrazol-4-yl)-3,4-dihydro-2H-quinolin-1-yl]-6-(3,6-dihydro-2H-pyran-4-yl)-isoquino-line-3-carboxylic acid methylamide] |
| 7.8 nM | CNC(=O)c1cc2ccc(N3CCOC3=O)cc2c(N2CCCc3cc(-c4cnn(C)c4)c(C(F)F)cc32)n1 [Example 24, 1-[7-difluoromethyl-6-(1-methyl-1H-pyrazol-4-yl)-3,4-dihydro-2H-quinolin-1-yl]-7-(2-oxo-oxazolidin-3-yl)-isoquinoline-3-carboxylic acid methylamide] |
| 4.2 nM | CNC(=O)c1cc2cc(N3CCOC3=O)ccc2c(N2CCCc3cc(-c4cnn(C)c4)c(C(F)F)cc32)n1 [Example 25, 1-[7-difluoromethyl-6-(1-methyl-1H-pyrazol-4-yl)-3,4-dihydro-2H-quinolin-1-yl]-6-(2-oxo-oxazolidin-3-yl)-isoquinoline-3-carboxylic acid methylamide] |
